For 22 compounds, IC50 results are on record in patent US12636290B2, “BET inhibitors for modulating DUX4 expression in FSHD” (Saint Louis University, priority 2018, dated 2026).

This test deals with DUX4 expression (surrogate marker MBD3L2). Briefly: Screening: qPCR analysis of DUX4 target gene MBD3L2 in differentiating MB200 FSHD2 muscle cells. It is filed as cell-based. Conditions: Homo sapiens, 40 hours, DUX4 expression inferred from surrogate marker MBD3L2 expression (qPCR, normalized to RPL30). How it is done: Cells and Cell Culture. Primary human myoblast cell lines, immortalized by retroviral transduction of cyclin-dependent kinase 4 (CDK4) and human telomerase reverse transcriptase (hTERT) (Stadler, et al., 2011), were obtained from the Fields Center at the University of Rochester (world-wide-web at urmc.rochester.edu/fields-center.aspx). Immortalized myoblasts were grown in Ham's F-10 Nutrient Mix (Gibco, Waltham, MA, USA) supplemented with 20% HyClone Fetal Bovine Serum (GE Healthcare Life Sciences, Pittsburgh, PA, USA), 100 U/100 μg penicillin/streptomycin (Gibco), 10 ng/ml recombinant human fibroblast growth factor (Promega Corporation, Madison, WI, USA) and 1 μM dexamethasone (Sigma-Aldrich). Differentiation of myoblasts into myotubes was achieved by switching the fully confluent myoblast monolayer into Dulbecco's Modified Eagle Medium (DMEM) (Gibco) containing 1% horse serum (Gibco), 100 U/100 μg penicillin/streptomycin, 10 μg/ml insulin (Sigma-Aldrich) and 10 μg/ml transferrin (Sigma-Aldrich) (HS/IT media) or DMEM:F12 Nutrient Mixture (1:1, Gibco) supplemented with 2% KnockOut Serum Replacement (Gibco), 100 U/100 μg penicillin/streptomycin, 10 μg/ml insulin and 10 μg/ml transferrin (KSR media) for 2-6 days.
Screening: qPCR analysis of DUX4 target genes MBD3L2. For screening compounds, differentiating MB200 FSHD2 muscle cells were exposed to BET inhibitors at a variety of concentrations for 40 hours to determine the effects of the drugs on DUX4 expression. Cell lysates were prepared using Cells-to-Ct Bulk Lysis Reagents (Invitrogen, Waltham, MA, USA). Gene expression was measured by quantitative polymerase chain reaction (qPCR) was carried out on a QuantStudio 5 (Applied Biosystems, Waltham, MA, USA) using TaqMan Gene Expression Assays (Applied Biosystems) and TaqMan Fast Virus 1-Step Master Mix (Invitrogen). The relative expression levels of DUX4 target gene methyl-CpG binding domain protein 3 like 2 (MBD3L2), was normalized to that of the reference gene ribosomal protein L30 (RPL30), which was included in multiplex (two gene) PCR reactions. TaqMan Gene Expression Assay ID numbers: MBD3L2, Hs00544743_m1; RPL30, Hs00265497_m1. Data is expressed as relative expression with the expression in absence of inhibitors set to one.
Analysis of MBD3L2 expression in cultured FSHD2 cells. DUX4 mRNA is present in very low levels, even in differentiating FSHD2 myoblasts, so DUX4 target gene MBD3L2 was used as a surrogate marker of DUX4 expression. FSHD2 patient derived muscle cells were analyzed to determine whether BET inhibitors affect MBD3L2 expression, indicating a reduction in DUX4 expression.
Background: In qPCR the cycle at which signal appears reflects the starting amount.

Counter-ions that a name gives are not always drawn. Like-named read-outs stand apart in the source and are kept apart here.

One may read the IC50 as the concentration that gives 50% inhibition.

With `COc1cc(N2CCC(c3ccc(OCCN4[C@H](C)CN(C(C)=O)C[C@@H]4C)cc3)CC2)ncc1-c1cn(C)c(=O)c2[nH]ccc12` [SLU-2117, 4-{6-[4-(4-(2-((2R,6S)-4-acetyl-2,6-dimethylpiperazin-1-yl)ethoxy)phenyl)piperidin-1-yl]-4-methoxypyridin-3-yl}-6-methyl-1H-pyrrolo[2,3-c]pyridin-7(6H)-one], the IC50 is 91 nM (read-out: DUX4* MT FSHD2: IC50) and 91 nM (read-out: DUX4* MT FSHD2 IC50).
With `C[C@H]1CN(C)C(=O)CN1CCOc1ccc(-c2ccc3cc(-c4cn(C)c(=O)c5[nH]ccc45)ccc3n2)cc1` [SLU-2287, (S)-4-{2-[4-(2-(2,4-dimethyl-5-oxopiperazin-1-yl)ethoxy)phenyl]quinolin-6-yl}-6-methyl-1,6-dihydro-7H-pyrrolo[2,3-c]pyridin-7-one], the concentration for half-maximal inhibition (IC50) (read-out: DUX4* MT FSHD2: IC50) came to 108 nM and the IC50 (read-out: DUX4* MT FSHD2 IC50) was 108 nM.
In the case of `C[C@@H]1C(=O)N(C)CCN1CCCOc1ccc(-c2ccc3cc(-c4cn(C)c(=O)c5[nH]ccc45)ccc3n2)cc1` [SLU-2299, (R)-4-{2-[4-(3-(2,4-dimethyl-3-oxopiperazin-1-yl)propoxy)phenyl]quinolin-6-yl}-6-methyl-1H-pyrrolo[2,3-c]pyridin-7(6H)-one], the IC50 came out at 3.4 nM (read-out: DUX4* MT FSHD2: IC50) and 3.4 nM (read-out: DUX4* MT FSHD2 IC50).
As to `C[C@@H]1C(=O)N(C)CCN1CCCOc1cccc(-c2ccc3cc(-c4cn(C)c(=O)c5[nH]ccc45)ccc3n2)c1` [SLU-2292, (R)-4-{2-[3-(3-(2,4-dimethyl-3-oxopiperazin-1-yl)propoxy)phenyl]quinolin-6-yl}-6-methyl-1H-pyrrolo[2,3-c]pyridin-7(6H)-one], the half-inhibitory concentration (IC50) runs as follows: (read-out: DUX4* MT FSHD2: IC50) 25 nM; (read-out: DUX4* MT FSHD2 IC50) 25 nM.
As for `COc1cc(-c2ccc(OCCN3CCN(C)C(=O)[C@H]3C)cc2)ccc1-c1cn(C)c(=O)c2[nH]ccc12` [SLU-2102, (R)-4-{4′-[2-(2,4-dimethyl-3-oxopiperazin-1-yl)ethoxy]-3-methoxy-[1,1′-biphenyl]-4-yl}-6-methyl-1H-pyrrolo[2,3-c]pyridin-7(6H)-one], the half-inhibitory concentration (IC50) (read-out: DUX4* MT FSHD2: IC50) was determined as 130 nM and the IC50 (read-out: DUX4* MT FSHD2 IC50) is 130 nM.
As for `C[C@@H]1C(=O)N(C)CCN1CCOc1ccc(CCc2ccc(-c3cn(C)c(=O)c4[nH]ccc34)cc2)cc1` [SLU-2227, (R)-4-{4-[4-(2-(2,4-dimethyl-3-oxopiperazin-1-yl)ethoxy)phenethyl]phenyl}-6-methyl-1H-pyrrolo[2,3-c]pyridin-7(6H)-one], the half-inhibitory concentration (IC50) (read-out: DUX4* MT FSHD2: IC50) is 69 nM and the IC50 (read-out: DUX4* MT FSHD2 IC50) was 69 nM.
In the case of `CN1CCN(CCOc2ccc(C3CCN(c4ccc(-c5cn(C)c(=O)c6[nH]ccc56)cn4)CC3)cc2)CC1=O` [SLU-2131, 6-methyl-4-{6-[4-(4-(2-(4-methyl-3-oxopiperazin-1-yl)ethoxy)phenyl)piperidin-1-yl]pyridin-3-yl}-1H-pyrrolo[2,3-c]pyridin-7(6H)-one], the IC50 came to 62 nM (read-out: DUX4* MT FSHD2: IC50) and 62 nM (read-out: DUX4* MT FSHD2 IC50).
As to `C#CCN1CCN(CCOc2ccc(-c3ccc4cc(-c5cn(C)c(=O)c6[nH]ccc56)ccc4n3)cc2)CC1=O` [SLU-2281, 6-methyl-4-{2-[4-(2-(3-oxo-4-(prop-2-yn-1-yl)piperazin-1-yl)ethoxy)phenyl]quinolin-6-yl}-1H-pyrrolo[2,3-c]pyridin-7(6H)-one], the IC50 by setting is: (read-out: DUX4* MT FSHD2: IC50) 130 nM; (read-out: DUX4* MT FSHD2 IC50) 130 nM.
As to `CN1CCN(CCOc2ccc(-c3ccc4cc(-c5cn(C)c(=O)c6[nH]ccc56)ccc4n3)cc2)CC1=O` [SLU-2244, 6-methyl-4-{2-[4-(2-(4-methyl-3-oxopiperazin-1-yl)ethoxy)phenyl]quinolin-6-yl}-1H-pyrrolo[2,3-c]pyridin-7(6H)-one], the 50% inhibitory concentration (IC50) runs as follows: (read-out: DUX4* MT FSHD2: IC50) 28 nM; (read-out: DUX4* MT FSHD2 IC50) 28 nM.
As to `CN1CCN(CCOc2ccc(-c3ccc4cc(-c5cn(C)c(=O)c6[nH]ccc56)ccc4n3)cc2)CC1` [SLU-2288], the IC50 is, setting by setting: (read-out: DUX4* MT FSHD2: IC50) 250 nM; (read-out: DUX4* MT FSHD2 IC50) 250 nM.
For the compound `C[C@@H]1C(=O)N(C)CCN1CCOc1ccc(-c2ccc3nc(-c4cn(C)c(=O)c5[nH]ccc45)ccc3c2)cn1` [SLU-2235, (R)-4-{6-[6-(2-(2,4-dimethyl-3-oxopiperazin-1-yl)ethoxy)pyridin-3-yl]quinolin-2-yl}-6-methyl-1H-pyrrolo[2,3-c]pyridin-7(6H)-one], the IC50 by setting is: (read-out: DUX4* MT FSHD2: IC50) 12 nM; (read-out: DUX4* MT FSHD2 IC50) 12 nM.
As for `Cn1cc(-c2ccc3ncccc3c2)c2cc[nH]c2c1=O` [SLU-2298, 6-methyl-4-(quinolin-6-yl)-1H-pyrrolo[2,3-c]pyridin-7(6H)-one], the IC50 was found to be 113 nM (read-out: DUX4* MT FSHD2: IC50) and 113 nM (read-out: DUX4* MT FSHD2 IC50).
On to `C[C@@H]1C(=O)N(C)CCN1CCOc1ccc(-c2ccc3cc(-c4cn(C)c(=O)c5[nH]ccc45)ccc3n2)cn1` [SLU-2240, (R)-4-{2-[6-(2-(2,4-dimethyl-3-oxopiperazin-1-yl)ethoxy)pyridin-3-yl]quinolin-6-yl}-6-methyl-1,6-dihydro-7H-pyrrolo[2,3-c]pyridin-7-one], for which the IC50 (read-out: DUX4* MT FSHD2: IC50) stood at 35 nM and the IC50 (read-out: DUX4* MT FSHD2 IC50) came out at 35 nM.
`C[C@@H]1C(=O)N(C)CCN1CCOc1ccc(C2CCN(c3ccc(-c4cn(C)c(=O)c5[nH]ccc45)cn3)CC2)cc1` [SLU-2089, (R)-4-{6-[4-(4-(2-(2,4-dimethyl-3-oxopiperazin-1-yl)ethoxy)phenyl)piperidin-1-yl]pyridin-3-yl}-6-methyl-1H-pyrrolo[2,3-c]pyridin-7(6H)-one]: the 50% inhibitory concentration (IC50) runs as follows: (read-out: DUX4* MT FSHD2: IC50) 4.8 nM; (read-out: DUX4* MT FSHD2 IC50) 4.8 nM.
For the compound `C[C@@H]1C(=O)N(C)CCN1CCOc1ccc2cc(-c3cn(C)c(=O)c4[nH]ccc34)ccc2n1` [SLU-2348, (R)-4-{2-[2-(2,4-dimethyl-3-oxopiperazin-1-yl)ethoxy]quinolin-6-yl}-6-methyl-1H-pyrrolo[2,3-c]pyridin-7(6H)-one], the IC50 (read-out: DUX4* MT FSHD2: IC50) came to 140 nM and the 50% inhibitory concentration (IC50) (read-out: DUX4* MT FSHD2 IC50) turned out to be 140 nM.
As to `Cn1cc(-c2ccc(N3CCC4(CCNCC4)CC3)nc2)c2cc[nH]c2c1=O` [SLU-2130, 4-[6-(3,9-diazaspiro[5.5]undecan-3-yl)pyridin-3-yl]-6-methyl-1H-pyrrolo[2,3-c]pyridin-7(6H)-one·hydrochloride], the IC50 came out at 120 nM (read-out: DUX4* MT FSHD2: IC50) and 120 nM (read-out: DUX4* MT FSHD2 IC50).
With `CCn1cc(-c2ccc3cc(-c4ccc(OCCN5CCN(C)C(=O)[C@H]5C)cc4)ccc3n2)c2cc[nH]c2c1=O` [SLU-2295, (R)-4-{6-[4-(2-(2,4-dimethyl-3-oxopiperazin-1-yl)ethoxy)phenyl]quinolin-2-yl}-6-ethyl-1H-pyrrolo[2,3-c]pyridin-7(6H)-one], the half-inhibitory concentration (IC50) by setting is: (read-out: DUX4* MT FSHD2: IC50) 51 nM; (read-out: DUX4* MT FSHD2 IC50) 51 nM.
On to `CC(=O)N1C[C@@H](C)N(CCOc2ccc(-c3ccc(-c4cn(C)c(=O)c5[nH]ccc45)cc3)cc2)[C@@H](C)C1` [SLU-2096, 4-{4′-[2-((2R,6S)-4-acetyl-2,6-dimethylpiperazin-1-yl)ethoxy]-[1,1′-biphenyl]-4-yl}-6-methyl-1H-pyrrolo[2,3-c]pyridin-7(6H)-one], for which the half-maximal inhibitory concentration (IC50) is, setting by setting: (read-out: DUX4* MT FSHD2: IC50) 180 nM; (read-out: DUX4* MT FSHD2 IC50) 180 nM.
For `Cn1cc(-c2ccc(N3CCC4(CCNCC4)C3)nc2)c2cc[nH]c2c1=O` [SLU-2214, 4-[6-(2,8-diazaspiro[4.5]decan-2-yl)pyridin-3-yl]-6-methyl-1H-pyrrolo[2,3-c]pyridin-7(6H)-one], the half-inhibitory concentration (IC50) was 95 nM (read-out: DUX4* MT FSHD2: IC50) and 95 nM (read-out: DUX4* MT FSHD2 IC50).
For the compound `C[C@@H]1C(=O)N(C)CCCN1CCOc1ccc(-c2ccc3cc(-c4cn(C)c(=O)c5[nH]ccc45)ccc3n2)cc1` [SLU-2284, (R)-4-{2-[4-(2-(2,4-dimethyl-3-oxo-1,4-diazepan-1-yl)ethoxy)phenyl]quinolin-6-yl}-6-methyl-1H-pyrrolo[2,3-c]pyridin-7(6H)-one], the 50% inhibitory concentration (IC50) runs as follows: (read-out: DUX4* MT FSHD2: IC50) 90 nM; (read-out: DUX4* MT FSHD2 IC50) 90 nM.
As to `Cn1cc(-c2ccc3nc(-c4ccc(OCCN5CCOCC5)cc4)ccc3c2)c2cc[nH]c2c1=O` [SLU-2234, 6-methyl-4-{2-[4-(2-morpholinoethoxy)phenyl]quinolin-6-yl}-1,6-dihydro-7H-pyrrolo[2,3-c]pyridin-7-one], the IC50 came to 69 nM (read-out: DUX4* MT FSHD2: IC50) and 69 nM (read-out: DUX4* MT FSHD2 IC50).
With `Cn1cc(-c2ccc3nc(-c4ccc(OCCN5CCC(F)(F)CC5)cc4)ccc3c2)c2cc[nH]c2c1=O` [SLU-2285, 4-{2-[4-(2-(4,4-difluoropiperidin-1-yl)ethoxy)phenyl]quinolin-6-yl}-6-methyl-1H-pyrrolo[2,3-c]pyridin-7(6H)-one], the IC50 turned out to be 570 nM (read-out: DUX4* MT FSHD2: IC50) and 570 nM (read-out: DUX4* MT FSHD2 IC50).
